Test results as given in patent US9790169B2, “IDO inhibitors” (BRISTOL-MYERS SQUIBB COMPANY, priority 2015, dated 2017).

molecular target: human IDO1 (Homo sapiens, UniProt P14902); assay: Assessment of human IDO-1 inhibitory activity in HEK cells (human IDO1/HEK293 cells, kynurenine read-out with Ehrlich reagent, absorbance 490 nm); assay type: cell-based; design: expressed in transfected cells; details: HEK Human IDO-1 cellular assay
Outline: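 Kynurenine output from stably IDO1-transfected HEK293 cells (10,000/well, phenol red-free RPMI, 10% FBS) after 20 h compound exposure at 37 °C. The reaction was stopped with 0.2% TCA and heated 30 min at 50 °C, then the supernatant was mixed with Ehrlich reagent and read at 490 nm. IC50 was set against DMSO and a 500 nM reference standard as 0 and 100% inhibition.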

human IDO1, sequence (P14902 whole entry): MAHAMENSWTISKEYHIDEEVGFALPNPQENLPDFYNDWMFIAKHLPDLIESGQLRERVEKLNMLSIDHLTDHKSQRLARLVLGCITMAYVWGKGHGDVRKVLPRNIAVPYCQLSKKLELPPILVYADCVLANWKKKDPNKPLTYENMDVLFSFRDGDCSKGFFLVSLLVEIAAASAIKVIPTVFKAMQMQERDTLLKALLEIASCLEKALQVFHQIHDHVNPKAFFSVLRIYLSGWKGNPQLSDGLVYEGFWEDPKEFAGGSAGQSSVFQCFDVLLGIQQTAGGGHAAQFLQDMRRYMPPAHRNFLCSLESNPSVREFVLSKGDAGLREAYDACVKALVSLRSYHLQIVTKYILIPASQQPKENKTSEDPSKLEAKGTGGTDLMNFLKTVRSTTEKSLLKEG

Row | IC50 | Compound
1 | < 5 nM | CCC(CC(=O)O)c1ccc(N(CC)C2CCCOC2)c(NC(=O)Nc2ccc(C)cc2)c1 (single isomer, unassigned) [Example 73 D4, 3-(4-(Ethyl(tetrahydro-2H-pyran-3-yl)amino)-3-(3-(p-tolyl)ureido)phenyl)pentanoic acid]
2 | < 50 nM | CC[C@@H](CC(=O)O)c1ccc(N2CCOC[C@@H]2C(C)C)c(NC(=O)Nc2ccc(Cl)cc2F)c1 (single isomer, unassigned) [Example 75]
3 | > 50 nM | CC[C@@H](CC(=O)O)c1ccc(N2CCOC[C@@H]2C(C)C)c(NC(=O)Nc2cc(C)on2)c1 (single isomer, unassigned) [Example 77]
4 | < 50 nM | CC[C@@H](CC(=O)O)c1ccc(N2CCOC[C@@H]2C(C)C)c(Nc2ccc(Cl)cc2)c1 (single isomer, unassigned) [Example 78]
5 | > 50 nM | CCOc1ncc(Nc2cc([C@@H](CC)CC(=O)O)ccc2N2CCOC[C@@H]2C(C)C)cn1 (single isomer, unassigned) [Example 79]
6 | < 50 nM | CCOc1ccc(Nc2cc([C@@H](CC)CC(=O)O)ccc2N2CCOC[C@@H]2C(C)C)cc1 (single isomer, unassigned) [Example 82]
7 | > 50 nM | CC[C@H](CC(=O)O)c1ccc(N2CCOC[C@@H]2C(C)C)c(NC(=O)Nc2cc(C)on2)c1 (single isomer, unassigned) [Example 88]
8 | < 5 nM | CC[C@H](CC(=O)O)c1ccc(N2CCOC[C@@H]2C(C)C)c(Nc2ccc(C#N)cc2)c1 (single isomer, unassigned) [Example 92]
9 | < 50 nM | CCOc1ncc(Nc2cc([C@H](CC)CC(=O)O)ccc2N2CCOC[C@@H]2C(C)C)cn1 (single isomer, unassigned) [Example 94]
10 | > 50 nM | CCC(CC(=O)O)c1cc(F)c(N(CC(C)C)CC(C)C)c(Nc2ccc3nc(C)sc3c2)c1 (single isomer, unassigned) [Example 95, 3-(4-(Diisobutylamino)-3-fluoro-5-((2-methylbenzo[d]thiazol-6-yl)amino)phenyl)pentanoic acid]
11 | < 50 nM | CCOc1ccc(Nc2cc(C(CC)CC(=O)O)cc(F)c2N(CC(C)C)CC(C)C)cc1 (single isomer, unassigned) [Example 97, 3-(4-(diisobutylamino)-3-((4-ethoxyphenyl)amino)-5-fluorophenyl)pentanoic acid]
12 | < 5 nM | CCC(CC(=O)O)c1cc(F)c(N(CC(C)C)CC(C)C)c(Nc2ccc(Cl)cc2)c1 (single isomer, unassigned) [Example 99, 3-(3-((4-chlorophenyl)amino)-4-(diisobutylamino)-5-fluorophenyl)pentanoic acid]
13 | < 5 nM | CCC(CC(=O)O)c1cc(F)c(N(CC(C)C)CC(C)C)c(Nc2ccc(Cl)c(OCC(F)(F)F)c2)c1 (single isomer, unassigned) [Example 102, 3-(3-((4-chloro-3-(2,2,2-trifluoroethoxy)phenyl)amino)-4-(diisobutylamino)-5-fluorophenyl)pentanoic acid]
14 | < 5 nM | CCOc1ncc(Nc2cc(C(CC)CC(=O)O)cc(F)c2N(CC(C)C)CC(C)C)cn1 (single isomer, unassigned) [Example 103, 3-(4-(diisobutylamino)-3-((2-ethoxypyrimidin-5-yl)amino)-5-fluorophenyl)pentanoic acid]
15 | > 50 nM | CCC(CC(=O)O)c1cc(F)c(N(CC(C)C)CC(C)C)c(Nc2ccnc(N3CCOCC3)n2)c1 (single isomer, unassigned) [Example 105, 3-(4-(diisobutylamino)-3-fluoro-5-((2-morpholinopyrimidin-4-yl)amino)phenyl) pentanoic acid]
16 | < 50 nM | CCC(CC(=O)O)c1cc(F)c(N(CC(C)C)CC(C)C)c(Nc2ccc(OCC3CC3)cc2)c1 (single isomer, unassigned) [Example 106, 3-(3-((4-(cyclopropylmethoxy)phenyl)amino)-4-(diisobutylamino)-5-fluorophenyl)pentanoic acid]
17 | < 50 nM | CCC(CC(=O)O)c1cc(F)c(N(CC(C)C)CC(C)C)c(Nc2ccc(Cl)c(OCC(F)(F)F)c2)c1 (single isomer, unassigned) [Example 118, 3-(3-((4-chloro-3-(2,2,2-trifluoroethoxy)phenyl)-amino)-4-(diisobutylamino)-5-fluorophenyl)pentanoic acid]
18 | < 50 nM | CC(C)CN(CC(C)C)c1c(F)cc(C(CC(=O)O)c2ccccc2)cc1Nc1ccc(Cl)cc1 (single isomer, unassigned) [Example 129, 3-(3-((4-Chlorophenyl)amino)-4-(diisobutylamino)-5-fluorophenyl)-3-phenylpropanoic acid]
19 | > 50 nM | Cc1nc2ccc(Nc3cc(C(CC(=O)O)c4ccccc4)cc(F)c3N(CC(C)C)CC(C)C)cc2s1 (single isomer, unassigned) [Example 130, 3-(4-(Diisobutylamino)-3-fluoro-5-((2-methylbenzo[d]thiazol-6-yl)amino)phenyl)-3-phenylpropanoic acid]

Continued, compound first:

Row | Compound | IC50
20 | CCC(CC(=O)O)c1ccc(N(CC)C2CCCOC2)c(NC(=O)Nc2ccc(C)cc2)c1 (single isomer, unassigned) [Example 73 D3, 3-(4-(Ethyl(tetrahydro-2H-pyran-3-yl)amino)-3-(3-(p-tolyl)ureido)phenyl)pentanoic acid] | < 50 nM
21 | CC[C@@H](CC(=O)O)c1ccc(N2CCOC[C@@H]2C(C)C)c(NC(=O)Nc2ccc(C)cc2)c1 (single isomer, unassigned) [Example 74] | > 50 nM
22 | CC[C@@H](CC(=O)O)c1ccc(N2CCOC[C@@H]2C(C)C)c(NC(=O)Nc2ccc(OC)cc2F)c1 (single isomer, unassigned) [Example 76] | > 50 nM
23 | CC[C@@H](CC(=O)O)c1ccc(N2CCOC[C@@H]2C(C)C)c(Nc2ccc3nc(C)sc3c2)c1 (single isomer, unassigned) [Example 80] | > 50 nM
24 | CC[C@@H](CC(=O)O)c1ccc(N2CCOC[C@@H]2C(C)C)c(Nc2ccc3c(c2)OC(F)(F)O3)c1 (single isomer, unassigned) [Example 81] | < 50 nM
25 | CC[C@@H](CC(=O)O)c1ccc(N2CCOC[C@@H]2C(C)C)c(Nc2ccc(C#N)cc2)c1 (single isomer, unassigned) [Example 83] | < 50 nM
26 | CC[C@@H](CC(=O)O)c1ccc(N2CCOC[C@@H]2C(C)C)c(Nc2ccc(F)cc2)c1 (single isomer, unassigned) [Example 84] | < 50 nM
27 | CC[C@H](CC(=O)O)c1ccc(N2CCOC[C@@H]2C(C)C)c(NC(=O)Nc2ccc(C)cc2)c1 (single isomer, unassigned) [Example 85] | > 50 nM
28 | CC[C@H](CC(=O)O)c1ccc(N2CCOC[C@@H]2C(C)C)c(NC(=O)Nc2ccc(Cl)cc2F)c1 (single isomer, unassigned) [Example 86] | < 50 nM
29 | CC[C@H](CC(=O)O)c1ccc(N2CCOC[C@@H]2C(C)C)c(NC(=O)Nc2ccc(OC)cc2F)c1 (single isomer, unassigned) [Example 87] | > 50 nM
30 | CC[C@H](CC(=O)O)c1ccc(N2CCOC[C@@H]2C(C)C)c(Nc2ccc(Cl)cc2)c1 (single isomer, unassigned) [Example 89] | < 5 nM
31 | CCc1ccc(Nc2cc([C@H](CC)CC(=O)O)ccc2N2CCOC[C@@H]2C(C)C)cc1 (single isomer, unassigned) [Example 91] | < 50 nM
32 | CC[C@H](CC(=O)O)c1ccc(N2CCOC[C@@H]2C(C)C)c(Nc2ccc3c(c2)OC(F)(F)O3)c1 (single isomer, unassigned) [Example 93] | < 50 nM
33 | CCc1ccc(Nc2cc(C(CC)CC(=O)O)cc(F)c2N(CC(C)C)CC(C)C)cc1 (single isomer, unassigned) [Example 96, 3-(4-(diisobutylamino)-3-((4-ethylphenyl)amino)-5-fluorophenyl)pentanoic acid] | < 50 nM
34 | CCC(CC(=O)O)c1cc(F)c(N(CC(C)C)CC(C)C)c(Nc2ccc(OCC(F)(F)F)cc2)c1 (single isomer, unassigned) [Example 98, 3-(4-(diisobutylamino)-3-fluoro-5-((4-(2,2,2-trifluoroethoxy)phenyl)amino)phenyl)pentanoic acid] | > 50 nM
35 | CCC(CC(=O)O)c1cc(F)c(N(CC(C)C)CC(C)C)c(Nc2ccc(F)cc2)c1 (single isomer, unassigned) [Example 100, 3-(4-(diisobutylamino)-3-fluoro-5-((4-fluorophenyl)amino)phenyl)pentanoic acid] | < 5 nM
36 | CCC(CC(=O)O)c1cc(F)c(N(CC(C)C)CC(C)C)c(Nc2ccc3c(c2)OC(F)(F)O3)c1 (single isomer, unassigned) [Example 101, 3-(3-((2,2-difluorobenzo [d][1,3]dioxol-5-yl)amino)-4-(diisobutylamino)-5-fluorophenyl)pentanoic acid] | < 5 nM
37 | CCC(CC(=O)O)c1cc(F)c(N(CC(C)C)CC(C)C)c(Nc2cnc(OC)nc2)c1 (single isomer, unassigned) [Example 104, 3-(4-(diisobutylamino)-3-fluoro-5-((2-methoxypyrimidin-5-yl)amino)phenyl) pentanoic acid] | < 5 nM
38 | CCC(CC(=O)O)c1cc(F)c(N(CC(C)C)CC(C)C)c(Nc2ccc(C#N)cc2)c1 (single isomer, unassigned) [Example 107, 3-(3-((4-cyanophenyl)amino)-4-(diisobutylamino)-5-fluorophenyl)pentanoic acid] | < 5 nM
39 | CCC(CC(=O)O)c1cc(F)c(N(CC(C)C)CC(C)C)c(NC(=O)c2ccc(Cl)cc2)c1 (single isomer, unassigned) [Example 127, 3-(3-(4-Chlorobenzamido)-4-(diisobutylamino)-5-fluorophenyl)pentanoic acid] | > 50 nM
40 | CCOc1ncc(Nc2cc(C(C)CC(=O)O)ccc2N(CC(C)(C)O)C2CCOCC2)cn1 (single isomer, unassigned) [Example 191, 3-(3-((2-Ethoxypyrimidin-5-yl)amino)-4-((2-hydroxy-2-methylpropyl)(tetrahydro-2H-pyran-4-yl)amino)phenyl)butanoic acid] | > 50 nM
